Experimental data taken from patent US11026427B2, “Microbiocidal oxadiazole derivatives” (SYNGENTA PARTICIPATIONS AG, priority 2016, dated 2021).

What was measured:
[1] = tested on: Puccinia recondita f. Sp. tritici; assay: Puccinia recondita f. sp. tritici / wheat / leaf disc curative (brown rust); format: in vivo; conditions: foliar, 200 ppm in the applied formulation, compared to untreated control, read-out: disease control
Protocol: (§1) Leaf disks or leaf segments of various plant species are cut from plants grown in a greenhouse. The cut leaf disks or segments are placed in multiwell plates (24-well format) onto water agar. The leaf disks are sprayed with a test solution before (preventative) or after (curative) inoculation. Compounds to be tested are prepared as DMSO solutions (max. 10 mg/ml) which are diluted to the appropriate concentration with 0.025% Tween20 just before spraying. The inoculated leaf disks or segments are incubated under defined conditions (temperature, relative humidity, light, etc.) according to the respective test system. A single evaluation of disease level is carried out 3 to 14 days after inoculation, depending on the pathosystem. Percent disease control relative to the untreated check leaf disks or segments is then calculated.
Wheat leaf segments cv. Kanzler are placed on agar in multiwell plates (24-well format). The leaf segments are then inoculated with a spore suspension of the fungus. Plates were stored in darkness at 19° C. and 75% relative humidity. The formulated test compound diluted in water was applied 1 day after inoculation. The leaf segments were incubated at 19° C. and 75% relative humidity under a light regime of 12 hours light/12 hours darkness in a climate cabinet and the activity of a compound was assessed as percent disease control compared to untreated when an appropriate level of disease damage appears in untreated check leaf segments (6 to 8 days after application).
(§2) The following compounds at 200 ppm in the applied formulation give at least 80% disease control in this test when compared to untreated control leaf disks under the same conditions, which show extensive disease development.

[2] = tested on: Glomerella lacenarium (Colletotrichum lacenarium); assay: Glomerella lacenarium (Colletotrichum lacenarium) liquid culture / cucumber / preventative (anthracnose); format: cell-based; conditions: 20 ppm in the applied formulation, growth inhibition measured photometrically, compared to untreated control, read-out: disease control
Protocol: Mycelia fragments or conidia suspensions of a fungus prepared either freshly from liquid cultures of the fungus or from cryogenic storage, are directly mixed into nutrient broth. DMSO solutions of the test compound (max. 10 mg/ml) are diluted with 0.025% Tween20 by a factor of 50 and 10 μl of this solution is pipetted into a microtiter plate (96-well format). The nutrient broth containing the fungal spores/mycelia fragments is then added to give an end concentration of the tested compound. The test plates are incubated in the dark at 24° C. and 96% relative humidity. The inhibition of fungal growth is determined photometrically after 2 to 7 days, depending on the pathosystem, and percent antifungal activity relative to the untreated check is calculated.
Conidia of the fungus from cryogenic storage are directly mixed into nutrient broth (PDB—potato dextrose broth). After placing a (DMSO) solution of test compound into a microtiter plate (96-well format), the nutrient broth containing the fungal spores is added. The test plates are incubated at 24° C. and the inhibition of growth is measured photometrically 3 to 4 days after application.
The following compounds at 20 ppm in the applied formulation give at least 80% disease control in this test when compared to untreated control under the same conditions, which show extensive disease development.

[3] = tested on: Phakopsora pachyrhizi; assay: Phakopsora pachyrhizi / soybean / leaf disc preventative (Asian soybean rust); format: in vivo; conditions: foliar, 200 ppm in the applied formulation, compared to untreated control, read-out: disease control
Protocol: as §1
Soybean leaf disks are placed on water agar in multiwell plates (24-well format) and sprayed with the formulated test compound diluted in water. One day after application leaf discs are inoculated by spraying a spore suspension on the lower leaf surface. After an incubation period in a climate cabinet of 24-36 hours in darkness at 20° C. and 75% rh leaf disc are kept at 20° C. with 12 h light/day and 75% rh. The activity of a compound is assessed as percent disease control compared to untreated when an appropriate level of disease damage appears in untreated check leaf disks (12 to 14 days after application).
as §2

[4] = tested on: Puccinia recondita f. Sp. tritici; assay: Puccinia recondita f. sp. tritici / wheat / leaf disc preventative (brown rust); format: in vivo; conditions: foliar, 200 ppm in the applied formulation, compared to untreated control, read-out: disease control
Protocol: as §1, with “calculated. Wheat leaf segments cv. Kanzler were placed on agar in multiwell plates (24-well format) and sprayed with the formulated test compound diluted in water. The leaf disks were inoculated with a spore suspension of the fungus 1 day after application. The inoculated leaf segments were incubated at 19° C. and 75% relative humidity (rh) under a light regime of 12 hours light/12 hours darkness in a climate cabinet and the activity of a compound was assessed as percent disease control compared to untreated when an appropriate level of disease damage appears in untreated check leaf segments (7 to 9 days after application). The following compounds at 200 ppm in the applied formulation give at least 80% disease control in this test when compared to untreated control leaf disks under the same conditions, which show extensive disease development.” for “calculated.”

Work on Cc1cc(C(=O)c2ccc(-c3noc(C(F)(F)F)n3)cc2)on1 [Compound 1.13, (3-methylisoxazol-5-yl)-[4-[5-(trifluoromethyl)-1,2,4-oxadiazol-3-yl]phenyl]methanone] yielded a pest or weed control at 200 ppm [1] of no less than 80%, an inhibition of growth at 20 ppm [2] of no less than 80% and a pest or weed control at 200 ppm [3] of no less than 80%. For the same molecule, the pest or weed control at 200 ppm [4] was no less than 80%.
With CCc1cc(C(=O)c2ccc(-c3noc(C(F)(F)F)n3)cc2)on1 [Compound 1.14, (3-ethylisoxazol-5-yl)-[4-[5-(trifluoromethyl)-1,2,4-oxadiazol-3-yl]phenyl]methanone] the pest or weed control at 200 ppm [1] was no less than 80%, the inhibition of growth at 20 ppm [2] was no less than 80% and the pest or weed control at 200 ppm [3] was no less than 80%. It also gave a pest or weed control at 200 ppm [4] of no less than 80%.
For O=C(c1ccc(-c2noc(C(F)(F)F)n2)cc1)c1ccccn1 [Compound 1.16, 2-pyridyl-[4-[5-(trifluoromethyl)-1,2,4-oxadiazol-3-yl]phenyl]methanone], the pest or weed control at 200 ppm [1] was no less than 80%, the inhibition of growth at 20 ppm [2] was no less than 80% and the pest or weed control at 200 ppm [3] was no less than 80%. For the same molecule, the pest or weed control at 200 ppm [4] was no less than 80% and the melting point was 66 to 70 °C.
CCn1cc(C(=O)c2ccc(-c3noc(C(F)(F)F)n3)cc2)cn1 [Compound 1.17, (1-ethylpyrazol-4-yl)-[4-[5-(trifluoromethyl)-1,2,4-oxadiazol-3-yl]phenyl]methanone] gave a pest or weed control at 200 ppm [1] of no less than 80%, an inhibition of growth at 20 ppm [2] of no less than 80% and a pest or weed control at 200 ppm [3] of no less than 80%. The pest or weed control at 200 ppm [4] was no less than 80% and the melting point was 80 to 86 °C.
For Cc1cccc(C(=O)c2ccc(-c3noc(C(F)(F)F)n3)cc2)n1 [Compound 1.18, (6-methyl-2-pyridyl)-[4-[5-(trifluoromethyl)-1,2,4-oxadiazol-3-yl]phenyl]methanone], the pest or weed control at 200 ppm [1] was no less than 80%, the inhibition of growth at 20 ppm [2] was no less than 80% and the pest or weed control at 200 ppm [3] was no less than 80%. The pest or weed control at 200 ppm [4] was no less than 80%.
COc1ccc(C(=O)c2ccc(-c3noc(C(F)(F)F)n3)cc2)nc1 [Compound 1.20, (5-methoxy-2-pyridyl)-[4-[5-(trifluoromethyl)-1,2,4-oxadiazol-3-yl]phenyl]methanone] gave a pest or weed control at 200 ppm [1] of no less than 80%, an inhibition of growth at 20 ppm [2] of no less than 80% and a pest or weed control at 200 ppm [3] of no less than 80%. The pest or weed control at 200 ppm [4] was no less than 80% and the melting point was 65 to 73 °C.
O=C(c1ccc(-c2noc(C(F)(F)F)n2)cc1)c1nccs1 [Compound 1.24, thiazol-2-yl-[4-[5-(trifluoromethyl)-1,2,4-oxadiazol-3-yl]phenyl]methanone] showed a pest or weed control at 200 ppm [1] of no less than 80%, an inhibition of growth at 20 ppm [2] of no less than 80% and a pest or weed control at 200 ppm [3] of no less than 80%. For the same molecule, the pest or weed control at 200 ppm [4] was no less than 80% and the melting point was 84 to 90 °C.
In the case of N#Cc1ccc(C(=O)c2ccc(-c3noc(C(F)(F)F)n3)nc2)cc1 [Compound 1.30, 4-[6-[5-(trifluoromethyl)-1,2,4-oxadiazol-3-yl]pyridine-3-carbonyl]benzonitrile], the pest or weed control at 200 ppm [1] is reported as no less than 80%, the inhibition of growth at 20 ppm [2] is reported as no less than 80% and the pest or weed control at 200 ppm [4] is reported as no less than 80%. The melting point was 142 to 146 °C.
Molecule Cc1nc(C(=O)c2ccc(-c3noc(C(F)(F)F)n3)cc2)cs1 [Compound 1.33, (2-methylthiazol-4-yl)-[4-[5-(trifluoromethyl)-1,2,4-oxadiazol-3-yl]phenyl]methanone] has a pest or weed control at 200 ppm [1] of no less than 80%, an inhibition of growth at 20 ppm [2] of no less than 80% and a pest or weed control at 200 ppm [4] of no less than 80%.
In the case of O=C(c1ccc(-c2noc(C(F)(F)F)n2)cc1)c1ccno1 [Compound 1.35, isoxazol-5-yl-[4-[5-(trifluoromethyl)-1,2,4-oxadiazol-3-yl]phenyl]methanone], the pest or weed control at 200 ppm [1] is reported as no less than 80%, the inhibition of growth at 20 ppm [2] is reported as no less than 80% and the pest or weed control at 200 ppm [4] is reported as no less than 80%. It also gave a melting point of 112 to 118 °C.
With Cc1ccc(C(=O)c2ccc(-c3noc(C(F)(F)F)n3)cc2)nc1 [Compound 1.37, (5-methyl-2-pyridyl)-[4-[5-(trifluoromethyl)-1,2,4-oxadiazol-3-yl]phenyl]methanone] the pest or weed control at 200 ppm [1] was no less than 80%, the inhibition of growth at 20 ppm [2] was no less than 80% and the pest or weed control at 200 ppm [4] was no less than 80%.
OC(c1ccc(-c2noc(C(F)(F)F)n2)cc1)c1ccccn1 (stereo not shown) [Compound 2.12, 2-pyridyl-[4-[5-(trifluoromethyl)-1,2,4-oxadiazol-3-yl]phenyl]methanol] gave a pest or weed control at 200 ppm [1] of no less than 80%, an inhibition of growth at 20 ppm [2] of no less than 80% and a pest or weed control at 200 ppm [3] of no less than 80%. It also gave a pest or weed control at 200 ppm [4] of no less than 80%.
Cc1cccc(C(O)c2ccc(-c3noc(C(F)(F)F)n3)cc2)n1 (stereo not shown) [Compound 2.13, (6-methyl-2-pyridyl)-[4-[5-(trifluoromethyl)-1,2,4-oxadiazol-3-yl]phenyl]methanol] showed a pest or weed control at 200 ppm [1] of no less than 80%, an inhibition of growth at 20 ppm [2] of no less than 80% and a pest or weed control at 200 ppm [3] of no less than 80%. It also gave a pest or weed control at 200 ppm [4] of no less than 80%.
With OC(c1ccc(-c2noc(C(F)(F)F)n2)cc1)c1cscn1 (stereo not shown) [Compound 2.18, thiazol-4-yl-[4-[5-(trifluoromethyl)-1,2,4-oxadiazol-3-yl]phenyl]methanol] the pest or weed control at 200 ppm [1] was no less than 80%, the inhibition of growth at 20 ppm [2] was no less than 80% and the pest or weed control at 200 ppm [4] was no less than 80%. For the same molecule, the melting point was 56 to 60 °C.
Cc1nc(C(O)c2ccc(-c3noc(C(F)(F)F)n3)cc2)cs1 (stereo not shown) [Compound 2.20, (2-methylthiazol-4-yl)-[4-[5-(trifluoromethyl)-1,2,4-oxadiazol-3-yl]phenyl]methanol] showed a pest or weed control at 200 ppm [1] of no less than 80%, a pest or weed control at 200 ppm [4] of no less than 80% and a melting point of 95 to 99 °C.
Molecule Cc1ncc(C(O)c2ccc(-c3noc(C(F)(F)F)n3)cc2)s1 (stereo not shown) [Compound 2.22, (2-methylthiazol-5-yl)-[4-[5-(trifluoromethyl)-1,2,4-oxadiazol-3-yl]phenyl]methanol] has a pest or weed control at 200 ppm [1] of no less than 80%, a pest or weed control at 200 ppm [4] of no less than 80% and a melting point of 104 to 108 °C.
For C=C(C)CC(O)(c1ccc(-c2noc(C(F)(F)F)n2)cc1)c1cc(C)no1 (stereo not shown) [Compound 2.24, 3-methyl-1-(3-methylisoxazol-5-yl)-1-[4-[5-(trifluoromethyl)-1,2,4-oxadiazol-3-yl]phenyl]but-3-en-1-ol], the pest or weed control at 200 ppm [1] was no less than 80% and the pest or weed control at 200 ppm [4] was no less than 80%.
With Cc1cc(C(C)(O)c2ccc(-c3noc(C(F)(F)F)n3)cc2)on1 (stereo not shown) [Compound 2.26, 1-(3-methylisoxazol-5-yl)-1-[4-[5-(trifluoromethyl)-1,2,4-oxadiazol-3-yl]phenyl]ethanol] the pest or weed control at 200 ppm [1] was no less than 80% and the pest or weed control at 200 ppm [4] was no less than 80%.
Work on CCC(O)(c1ccc(-c2noc(C(F)(F)F)n2)cc1)c1cc(C)no1 (stereo not shown) [Compound 2.27, 1-(3-methylisoxazol-5-yl)-1-[4-[5-(trifluoromethyl)-1,2,4-oxadiazol-3-yl]phenyl]propan-1-ol] yielded a pest or weed control at 200 ppm [1] of no less than 80% and a pest or weed control at 200 ppm [4] of no less than 80%.
